Converted amounts (≈) assume the structure as drawn.
What was measured:
mouse leukemia L1210 = test: Antitumor activity for L1210 (life prolonging effect, mouse leukemia transplanted intraperitoneally); type: in vivo; conditions: for 40-day survivors: at optimum dose, group of six female CDF1 mice; for minimal effective dose: Mus musculus, L1210, ip, denominator of therapeutic index, i.p. total dose, read-out: Minimum effective dose; for Therapeutic Index (Maximum tolerable dose/Minimum effective dose): i.p., L1210, CDF1 mice
Protocol: (§1) 5×10^5 cells of mouse leukemia L1210 were transplanted intraperitoneally to a group of six female CDF1 mice (7 weeks old, body weight 17-19 g). The test compound was administered intraperitoneally on day 1, 5 and 9 and its life prolonging effect was observed.
(§2) In a case of the administration of a test compound as an acid addition salt the test compound was dissolved in water. The total administration amount was 1.56 mg/kg-400 mg/kg. The antitumor activity was expressed by the value (T/C%) wherein T denotes the mean survival days in the drug administered group and C denotes those in the non administered group. In case of equal to or more than 125% the drug is considered to be effective.

Water solubility = type: physicochemical
[1] = Acute toxicity test by intraperitoneal administration; conditions: mouse, in vivo, ip, ICR male mice, 1 week observation
Protocol: Acute toxicity test was conducted by intraperitoneal administration using a group of twenty ICR male mice (4 weeks old, body weight around 20 g).
LD50 value was calculated by the Richfield-Willcokson method from a lethal ratio observing the fate of mice during 1 week after administration of a test compound.

[2] = Antitumor activity for L1210 (life prolonging effect, mouse leukemia transplanted intraperitoneally); type: in vivo; conditions: mouse, in vivo, ip; numerator of therapeutic index; i.p. total dose; read-out: Maximum tolerable dose
Protocol: as §1, §2

Row | SMILES | 40-day survivors (mouse leukemia L1210) | solubility (Water solubility) | LD50 at 168 h [1] | minimal effective dose (mouse leukemia L1210) | Therapeutic Index (Maximum tolerable dose/Minimum effective dose) (mouse leukemia L1210) | MTD [2]
1 | CCc1c2c(nc3cc(F)c(F)cc13)-c1cc([C@@](O)(CC)C(=O)NCCN(C)C)c(COC(=O)CCSC)c(=O)n1C2 [Compound C15] | 0/6 | > 64 mg/mL | 85.2 mg/kg | – | – | –
2 | CCc1c2c(nc3cc(F)c(F)cc13)-c1cc([C@@](O)(CC)C(=O)NCCN(C)C)c(COC(=O)c3ccc(OC)cc3)c(=O)n1C2 [Compound C16] | 0/6 | 6 mg/mL (≈ 9.45 mM) | 65.6 mg/kg | 6.25 mg/kg | 2 | 12.5 mg/kg
3 | CCC(=O)OCc1c([C@@](O)(CC)C(=O)NCCN(C)C)cc2n(c1=O)Cc1c-2nc2cc(Cl)c(Cl)cc2c1CC [Compound C17] | 2/6 | > 64 mg/mL | 112 mg/kg | 1.56 mg/kg | 4 | 6.25 mg/kg
4 | CCCC(=O)OCc1c([C@@](O)(CC)C(=O)NCCN(C)C)cc2n(c1=O)Cc1c-2nc2cc(Cl)c(Cl)cc2c1CC [Compound C18] | 0/6 | 35 mg/mL (≈ 58 mM) | 92.3 mg/kg | < 1.56 mg/kg | > 2 | 3.13 mg/kg
5 | CCc1c2c(nc3cc(F)c(OC)cc13)-c1cc([C@@](O)(CC)C(=O)NCCN(C)C)c(COC(=O)CCSC)c(=O)n1C2 [Compound C22] | 0/6 | > 65 mg/mL | 68.6 mg/kg | – | – | –
6 | CC=CC(=O)OCc1c([C@@](O)(CC)C(=O)NCCN(C)C)cc2n(c1=O)Cc1c-2nc2ccc(O)cc2c1CC [Compound C34] | – | > 59 mg/mL | – | – | – | –
7 | CCc1c2c(nc3ccc(C)cc13)-c1cc([C@@](O)(CC)C(=O)NCCN(C)C)c(COC(=O)c3ccncc3)c(=O)n1C2 [Compound C39] | 3/6 | – | 320 mg/kg | 3.13 mg/kg | 16 | 50 mg/kg
8 | CCc1c2c(nc3ccc(Cl)cc13)-c1cc([C@@](O)(CC)C(=O)NCCN(C)C)c(COC(=O)c3ccncc3)c(=O)n1C2 [Compound C40] | 1/6 | – | 213 mg/kg | 1.56 mg/kg | 4 | 6.25 mg/kg
9 | CCc1c2c(nc3cc(F)ccc13)-c1cc([C@@](O)(CC)C(=O)NCCN(C)C)c(COC(=O)c3ccncc3)c(=O)n1C2 [Compound C41] | 2/6 | – | 220 mg/kg | < 1.56 mg/kg | > 16 | 25 mg/kg
10 | CCc1c2c(nc3cc(F)c(C)cc13)-c1cc([C@@](O)(CC)C(=O)NCCN(C)C)c(COC(=O)c3ccncc3)c(=O)n1C2 [Compound C42] | 2/6 | – | 310 mg/kg | 1.56 mg/kg | > 8 | 12.5 mg/kg
11 | CCc1c2c(nc3cc(F)c(OC)cc13)-c1cc([C@@](O)(CC)C(=O)NCCN(C)C)c(COC(=O)c3ccncc3)c(=O)n1C2 [Compound C43] | 2/6 | – | 165 mg/kg | 1.56 mg/kg | > 4 | 6.25 mg/kg
12 | CCc1c2c(nc3ccc(O)cc13)-c1cc([C@@](O)(CC)C(=O)NCCN(C)C)c(COC(C)=O)c(=O)n1C2 [Compound C45] | 0/6 | – | 376 mg/kg | 100 mg/kg | 4 | 400 mg/kg
13 | CCc1c2c(nc3ccc(O)cc13)-c1cc([C@@](O)(CC)C(=O)NCCN(C)C)c(COC(=O)C(C)C)c(=O)n1C2 [Compound C46] | 0/6 | – | 478 mg/kg | 25 mg/kg | 16 | 400 mg/kg
14 | CCOCCC(=O)OCc1c([C@@](O)(CC)C(=O)NCCN(C)C)cc2n(c1=O)Cc1c-2nc2ccc(O)cc2c1CC [Compound C47] | 0/6 | – | 471 mg/kg | 50 mg/kg | 4 | 200 mg/kg
15 | CCc1c2c(nc3ccc(OC(C)=O)cc13)-c1cc([C@@](O)(CC)C(=O)NCCN(C)C)c(COC(=O)c3ccc(F)cc3)c(=O)n1C2 [Compound C48] | 0/6 | – | 418 mg/kg | 25 mg/kg | 8 | 200 mg/kg

Source: patent publication US5843954A, “Camptothecin derivatives, preparations thereof and antitumor agents” (priority 1994, dated 1998)
